{
  "source": "patent US11964953B2",
  "about": "“Substituted aminothiazoles as DGKzeta inhibitors for immune activation” (Bayer Aktiengesellschaft, priority 2020, dated 2024)",
  "data": [
    {"target": "human DGKζ (Homo sapiens (Human), UniProt Q13574)", "sequence (Q13574 other isoform, or with tags, fused parts or gaps)": "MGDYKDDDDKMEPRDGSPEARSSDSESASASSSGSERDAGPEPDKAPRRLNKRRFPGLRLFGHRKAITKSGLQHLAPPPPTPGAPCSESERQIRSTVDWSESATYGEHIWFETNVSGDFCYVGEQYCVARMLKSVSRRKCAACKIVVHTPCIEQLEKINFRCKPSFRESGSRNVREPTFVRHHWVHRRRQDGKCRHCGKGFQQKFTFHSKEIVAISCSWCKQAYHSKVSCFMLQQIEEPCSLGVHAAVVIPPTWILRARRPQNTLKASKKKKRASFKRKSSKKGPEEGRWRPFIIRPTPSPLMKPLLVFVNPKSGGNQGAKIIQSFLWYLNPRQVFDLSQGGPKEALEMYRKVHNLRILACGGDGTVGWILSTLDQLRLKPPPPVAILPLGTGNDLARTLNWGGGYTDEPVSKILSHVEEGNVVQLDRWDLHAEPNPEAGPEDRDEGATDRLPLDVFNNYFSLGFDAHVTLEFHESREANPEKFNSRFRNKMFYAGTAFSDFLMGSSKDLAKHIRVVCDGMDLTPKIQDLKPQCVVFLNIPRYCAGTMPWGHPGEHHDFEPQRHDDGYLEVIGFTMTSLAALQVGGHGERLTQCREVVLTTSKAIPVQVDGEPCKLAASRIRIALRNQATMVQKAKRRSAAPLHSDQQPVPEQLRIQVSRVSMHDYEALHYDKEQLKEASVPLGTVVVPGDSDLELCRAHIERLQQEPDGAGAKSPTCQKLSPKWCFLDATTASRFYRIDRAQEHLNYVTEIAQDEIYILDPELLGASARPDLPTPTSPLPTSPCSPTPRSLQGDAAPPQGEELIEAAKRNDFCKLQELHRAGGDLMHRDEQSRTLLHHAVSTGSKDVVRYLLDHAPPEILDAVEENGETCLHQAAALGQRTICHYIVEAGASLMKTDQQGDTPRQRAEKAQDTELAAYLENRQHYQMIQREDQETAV", "test": "Human DGKζ kinase activity inhibition assay (ADP-Glo)", "type": "biochemical", "conditions": "in vitro human DGKζ kinase activity inhibition assay; read-out: IC50", "experimental": "Human DGKζ Kinase Activity Inhibition Assay. Human diacylglycerol kinase zeta (DGKζ) inhibitory activity of compounds of the present invention was quantified employing the human DGKζ kinase activity assay as described in the following paragraphs. In essence, the enzyme activity was measured by quantification of the adenosine-di-phosphate (ADP) generated as a co-product of the enzyme reaction via the “ADP-Glo™ Kinase Assay” kit from the company Promega. This detection system works as follows: In a first step the adenosine-tri-phosphate (ATP) not consumed in the kinase reaction is quantitatively converted to cyclic adenosine-mono-phosphate (cAMP) employing an adenylate cyclase (“ADP-Glo-reagent”), then the adenylate cyclase is stopped and the ADP generated in the kinase reaction is converted to ATP, which subsequently generates in a luciferase-based reaction a glow-luminescence signal (“Kinase Detection Reagent”). C-terminally FLAG-tagged, recombinant full-length human DGKζ (in house expressed in baculovirus infected insect cells, purified using anti-Flag pulldown and size exclusion chromatography) was used as enzyme. As an alternative, commercially available enzyme by Carnabio can be used. […] Subsequently, 22.55 volumes of a 510 mM solution of octyl-β-D-glucopyranoside (Sigma-Aldrich, Cat. #O8001-10G) in 50 mM MOPS buffer (pH 7.4) were added, and the mixture was sonicated in an ultrasonic bath for 20 s. […] Viewlux™ from Perkin-Elmer). The amount of emitted light was taken as a measure for the amount of ADP generated and thereby for the activity of the DGKζ.", "units": {"IC50": "nM"}, "values": [
      {"smiles": "COc1ccc(C(=O)c2sc(N(c3ccc(Cl)c(F)c3)C(C)C(N)=O)nc2N)cn1", "note": "(racemic) [Example 172, rac-2-(N-[4-amino-5-(6-methoxypyridine-3-carbonyl)thiazol-2-yl]-4-chloro-3-fluoro-anilino)propanamide]", "IC50": 46},
      {"smiles": "CC(C(N)=O)N(c1ccc(Cl)nc1)c1nc(N)c(C(=O)c2ccccc2)s1", "note": "(racemic) [Example 232, rac-2-[(4-amino-5-benzoyl-thiazol-2-yl)-(6-chloro-3-pyridyl)amino]propanamide]", "IC50": 112},
      {"smiles": "CC(C(N)=O)N(c1ccc(F)cc1)c1nc(N)c(C(=O)c2ccc(OC(F)F)nc2)s1", "note": "(single isomer, unassigned) [Example 162.1, 2-(N-[4-amino-5-[6-(difluoromethoxy)pyridine-3-carbonyl]thiazol-2-yl]-4-fluoro-anilino)propanamide]", "IC50": 12},
      {"smiles": "CC(C(N)=O)N(c1ccc(OC(F)F)c(F)c1)c1nc(N)c(C(=O)c2ccccc2)s1", "note": "(racemic) [Example 198, rac-2-[N-(4-amino-5-benzoyl-thiazol-2-yl)-4-(difluoromethoxy)-3-fluoro-anilinojpropanamide]", "IC50": 88},
      {"smiles": "CC(C(N)=O)N(c1ccc(F)cc1)c1nc(N)c(C(=O)c2ccc(OCCO)cc2)s1", "note": "(racemic) [Example 292, rac-2-(N-[4-amino-5-[4-(2-hydroxyethoxy)benzoyl]thiazol-2-yl]-4-fluoro-anilino)propanamide]", "IC50": 282},
      {"smiles": "Cc1cccc(CNC(=O)COc2ccc(C(=O)c3sc(N(c4ccc(F)cc4)C(C)C(N)=O)nc3N)cc2)c1", "note": "(racemic) [Example 83, rac-2-(N-[4-amino-5-[4-[2-(m-tolylmethylamino)-2-oxo-ethoxy]benzoyl]thiazol-2-yl]-4-fluoro-anilino)propanamide]", "IC50": 24.3},
      {"smiles": "CC(C(N)=O)N(c1ccc(C(F)F)cc1)c1nc(N)c(C(=O)c2ccc(OC(F)F)cc2)s1", "note": "(racemic) [Example 245, rac-2-[N-[4-amino-5-[4-(difluoromethoxy)benzoyl]thiazol-2-yl]-4-(difluoromethyl)anilino]propanamide]", "IC50": 22},
      {"smiles": "CC(C(N)=O)N(c1ccc(F)cc1)c1nc(N)c(C(=O)c2ccncc2)s1", "note": "(racemic) [Example 7, rac-2-(N-[4-amino-5-(pyridine-4-carbonyl)thiazol-2-yl]-4-fluoro-anilino)propanamide]", "IC50": 705},
      {"smiles": "CC(C(N)=O)N(c1ccc(F)c(Cl)c1)c1nc(N)c(C(=O)c2ccncc2)s1", "note": "(single isomer, unassigned) [Example 160.2, 2-(N-[4-amino-5-(pyridine-4-carbonyl)thiazol-2-yl]-3-chloro-4-fluoro-anilino)propanamide]", "IC50": 8450},
      {"smiles": "CC(C(N)=O)N(c1ccc(C#N)c(F)c1)c1nc(N)c(C(=O)c2ccccc2)s1", "note": "(racemic) [Example 192, rac-2-(N-(4-amino-5-benzoyl-thiazol-2-yl)-4-cyano-3-fluoro-anilino)propanamide]", "IC50": 224},
      {"smiles": "CC(C(N)=O)N(c1ccc(F)c(F)c1)c1nc(N)c(C(=O)c2ccncc2)s1", "note": "(single isomer, unassigned) [Example 50.2, 2-(N-[4-amino-5-(pyridine-4-carbonyl)thiazol-2-yl]-3,4-difluoro-anilino)propanamide]", "IC50": 14300},
      {"smiles": "CC(C(N)=O)N(c1ccc(OC(F)(F)F)cc1)c1nc(N)c(C(=O)c2ccccc2)s1", "note": "(racemic) [Example 24, rac-2-[N-(4-amino-5-benzoyl-thiazol-2-yl)-4-(trifluoromethoxy)anilino]propanamide]", "IC50": 115},
      {"smiles": "CC(C(N)=O)N(c1ccc(OC(F)F)c(Cl)c1)c1nc(N)c(C(=O)c2ccncc2)s1", "note": "(racemic) [Example 203, rac-2-[N-[4-amino-5-(pyridine-4-carbonyl)thiazol-2-yl]-3-chloro-4-(difluoromethoxy)anilino]propanamide]", "IC50": 381},
      {"smiles": "CC(C(N)=O)N(c1ccc(C(F)F)cc1)c1nc(N)c(C(=O)c2ccncc2)s1", "note": "(racemic) [Example 246, rac-2-[N-[4-amino-5-(pyridine-4-carbonyl)thiazol-2-yl]-4-(difluoromethyl)anilino]propanamide]", "IC50": 662},
      {"smiles": "Cc1nc(N(c2ccc(F)c(F)c2)C(C)C(N)=O)sc1C(=O)c1ccc(OC(F)F)cc1", "note": "(single isomer, unassigned) [Example 55.1, 2-(N-[5-[4-(difluoromethoxy)benzoyl]-4-methyl-thiazol-2-yl]-3,4-difluoro-anilino)propanamide]", "IC50": 6},
      {"smiles": "CC(C(N)=O)N(c1ccc(F)cc1)c1nc(N)c(C(=O)c2ccc(Cl)c(Cl)c2)s1", "note": "(racemic) [Example 26, rac-2-(N-[4-amino-5-(3,4-dichlorobenzoyl)thiazol-2-yl]-4-fluoro-anilino)propanamide]", "IC50": 74.8},
      {"smiles": "CC(C(N)=O)N(c1ccc(F)cc1)c1nc(N)c(C(=O)c2ccc(C(=O)NC[C@H](C)O)cc2)s1", "note": "(mixture of isomers) [Example 263, 4-[4-amino-2-(N-(2-amino-1-methyl-2-oxo-ethyl)-4-fluoro-anilino)thiazole-5-carbonyl]-N-[(2S)-2-hydroxypropyl]benzamide (mixture of stereoisomers)]", "IC50": 539},
      {"smiles": "COc1ccc(N(c2nc(N)c(C(=O)c3ccccc3)s2)C(C)C(N)=O)cc1", "note": "(racemic) [Example 66, rac-2-(N-(4-amino-5-benzoyl-thiazol-2-yl)-4-methoxy-anilino)propanamide]", "IC50": 363},
      {"smiles": "CC(C(N)=O)N(c1ccc(F)cc1)c1nc(N)c(C(=O)c2ccc(C#N)cc2)s1", "note": "(racemic) [Example 33, rac-2-(N-[4-amino-5-(4-cyanobenzoyl)thiazol-2-yl]-4-fluoro-anilino)propanamide]", "IC50": 42.8},
      {"smiles": "Cc1ccc(C(=O)c2sc(N(c3ccc(F)cc3)C(C)C(N)=O)nc2N)cc1", "note": "(single isomer, unassigned) [Example 63.2, 2-(N-[4-amino-5-(4-methylbenzoyl)thiazol-2-yl]-4-fluoro-anilino)propanamide]", "IC50": 18.5},
      {"smiles": "CC(C(N)=O)N(c1cccc(F)c1)c1nc(N)c(C(=O)c2ccccc2)s1", "note": "(single isomer, unassigned) [Example 74.1, 2-(N-(4-amino-5-benzoyl-thiazol-2-yl)-3-fluoro-anilino)propanamide]", "IC50": 17100},
      {"smiles": "CC(C(N)=O)N(c1ccc(OC(F)(F)F)nc1)c1nc(N)c(C(=O)c2ccccc2)s1", "note": "(racemic) [Example 228, rac-2-[(4-amino-5-benzoyl-thiazol-2-yl)-[6-(trifluoromethoxy)-3-pyridyl]amino]propanamide]", "IC50": 218},
      {"smiles": "CC(C(N)=O)N(c1ccc(Cl)c(F)c1)c1nc(N)c(C(=O)c2ccc(OCc3ccccc3)cc2)s1", "note": "(racemic) [Example 166, rac-2-(N-[4-amino-5-(4-benzyloxybenzoyl)thiazol-2-yl]-4-chloro-3-fluoro-anilino)propanamide]", "IC50": 3},
      {"smiles": "CCOC(=O)C(C)(C)Oc1ccc(C(=O)c2sc(N(c3ccc(F)cc3)C(C)C(N)=O)nc2N)cc1", "note": "(racemic) [Example 259, Rac-Ethyl 2-[4-[4-amino-2-(N-(2-amino-1-methyl-2-oxo-ethyl)-4-fluoro-anilino)thiazole-5-carbonyl]phenoxy]-2-methyl-propanoate]", "IC50": 19},
      {"smiles": "COc1ccc(C(=O)c2sc(N(c3ccc(Cl)cc3)C(C)C(N)=O)nc2N)cc1", "note": "(single isomer, unassigned) [Example 58.2, 2-(N-[4-amino-5-(4-methoxybenzoyl)thiazol-2-yl]-4-chloro-anilino)propanamide]", "IC50": 1050},
      {"smiles": "Cc1ccccc1CNC(=O)COc1ccc(C(=O)c2sc(N(c3ccc(F)cc3)C(C)C(N)=O)nc2N)cc1", "note": "(racemic) [Example 84, rac-2-(N-[4-amino-5-[4-[2-(o-tolylmethylamino)-2-oxo-ethoxy]benzoyl]thiazol-2-yl]-4-fluoro-anilino)propanamide]", "IC50": 24.6},
      {"smiles": "CC1CCN(C(=O)COc2ccc(C(=O)c3sc(N(c4ccc(F)cc4)C(C)C(N)=O)nc3N)cc2)CC1", "note": "(racemic) [Example 129, rac-2-(N-[4-amino-5-(4-[2-(4-methyl-1-piperidyl)-2-oxo-ethoxy]benzoyl]thiazol-2-yl]-4-fluoro-anilino)propanamide]", "IC50": 97.1},
      {"smiles": "CC(C(N)=O)N(c1ccc(F)nc1)c1nc(N)c(C(=O)c2ccccc2)s1", "note": "(racemic) [Example 233, rac-2-[(4-amino-5-benzoyl-thiazol-2-yl)-(6-fluoro-3-pyridyl)amino]propanamide]", "IC50": 267},
      {"smiles": "CC(C(N)=O)N(c1ccc(OC(F)(F)F)c(F)c1)c1nc(N)c(C(=O)c2ccncc2)s1", "note": "(racemic) [Example 220, rac-2-[N-[4-amino-5-(pyridine-4-carbonyl)thiazol-2-yl]-3-fluoro-4-(trifluoromethoxy)anilino]propanamide]", "IC50": 219},
      {"smiles": "CC(C(N)=O)N(c1ccccc1)c1nc(N)c(C(=O)c2ccccc2)s1", "note": "(racemic) [Example 60, rac-2-(N-(4-amino-5-benzoyl-thiazol-2-yl)anilino)propanamide]", "IC50": 403},
      {"smiles": "Cc1cc(NC(=O)COc2ccc(C(=O)c3sc(N(c4ccc(F)cc4)C(C)C(N)=O)nc3N)cc2)on1", "note": "(racemic) [Example 112, rac-2-(N-(4-amino-5-[4-[2-[(3-methylisoxazol-5-yl)amino]-2-oxo-ethoxy]benzoyl]thiazol-2-yl]-4-fluoro-anilino)propanamide]", "IC50": 300}
    ]}
  ]
}
